Test results reported in paper PMC6072100, “Exploring the links between peptoid antibacterial activity and toxicity” (MedChemComm, 2017).
Square brackets hold non-standard residues; d marks the D form. Peptide text beside a SMILES is read from it. N(isopentyl)Gly = CC(C)CCNCC(=O)O; Nspe = C[C@H](NCC(=O)O)c1ccccc1; NhArg = N=C(N)NCCCCNCC(=O)O; Nlys = NCCCCNCC(=O)O

Key:
[1] = tested on: Escherichia coli K-12 wild-type strain (W3110/ATCC27325); type: cell-based; details: lowest concentration completely inhibiting growth, 37 °C, 16 h; range 2–100 μM
Protocol: (§1) Escherichia coli K-12 wild-type strain (W3110/ATCC27325, F^–, λ^–, rpoS(Am), rph-1, Inv(rrnD-rrnE)), Pseudomonas aeruginosa PA01 (ATCC 15692) Staphylococcus aureus (3R7089 strain Oxford/ATCC9144) and Staphylococcus epidermidis (laboratory strain from clinical isolate) were selected for bacteriological studies as representative Gram-negative (E. coli and P. aeruginosa) and Gram-positive (S. aureus and S. epidermidis) species. Bacterial cultures were prepared by streaking bacterial strains onto LB agar plates with an inoculation loop and incubated overnight at 37 °C. A single colony was selected and placed in 5 mL of Iso-sensitest broth (Oxoid, ThermoScientific) and incubated with shaking for 16–18 h at 37 °C to provide liquid cultures for testing.
(§2) MIC values were obtained according to the protocol described by J. M. Andrews et al.[58] and were conducted in 96-well plates (Sarstedt). Bacteria were grown from overnight cultures in Iso-sensitest broth to an A650nm of 0.07 equivalent to a 0.5 MacFarland standard (240 μM BaCl2 in 0.18 M H2SO4). This culture was diluted ten-fold with Iso-sensitest broth before use. Peptoids were initially dissolved in DMSO (5 mM) and diluted further in Iso-sensitest broth to achieve a concentration range of 4–200 μM using 2-fold serial dilutions. 50 μl of inoculum and 50 μl of peptoid solution were added to each test well (final concentration range of 2–100 μM). Experiments were performed in triplicate. A positive control for bacterial growth contained only the inoculum and Iso-sensitest broth. Other controls contained the inoculum and serial dilutions of ampicillin (from 250 μg mL^–1 to 2 μg mL^–1), serial dilutions of DMSO and the inoculum to confirm no inhibitory effect on bacterial growth, and Iso-sensitest broth alone as a sterile control. […] Quantitative data was attained from absorbance values using a Biotek Synergy H4 plate reader.
(§3) Antibacterial MIC determination
(§4) Escherichia coli K-12 wild-type strain (W3110 / ATCC27325, F-, λ-, rpoS(Am), rph-1, Inv(rrnD-rrnE)), Pseudomonas aeruginosa PA01 (ATCC 15692) Staphylococcus aureus (3R7089 strain Oxford / ATCC9144) and Staphylococcus epidermidis (laboratory strain from clinical isolate) were selected for bacteriological studies as representative Gram-negative (E. coli and P. aeruginosa) and Gram-positive (S. aureus and S. epidermidis) species. Bacterial cultures were prepared by streaking bacterial strains onto LB agar plates with an inoculation loop and incubated overnight at 37 °C.
(§5) A single colony was selected and placed in 5 mL of Iso-sensitest broth (Oxoid, ThermoScientific) and incubated with shaking for 16-18 h at 37 °C to provide liquid […]
(§6) MIC values were obtained according to the protocol described by J. M. Andrews et al.1 and were conducted in 96-well plates (Sarstedt). Bacteria were grown from overnight cultures in Iso-sensitest broth to an A650nm of 0.07 equivalent to a 0.5 MacFarland standard (240 μM BaCl2 in 0.18 M H2SO4). This culture was diluted ten-fold with Iso-sensitest broth before use. Peptoids were initially dissolved in DMSO (5 mM) and diluted further in Iso-sensitest broth to achieve a concentration range of 4 – 200 µM using 2-fold serial dilutions. 50 μl of inoculum and 50 μl of peptoid solution were added to each test well (final concentration range of 2 – 100 µM). Experiments were performed in triplicate. A positive control for bacterial growth contained only the inoculum and Iso-sensitest broth. Other controls contained the inoculum and serial dilutions of ampicillin (from 250 µg/mL to 2 µg/mL), serial dilutions of DMSO and the inoculum to confirm no inhibitory effect on bacterial growth, and Iso-sensitest broth alone as a sterile control. […]
(§7) growth after incubation at 37 °C for 16 h with shaking. Quantitative data was attained from absorbance values using a Biotek Synergy H4 plate reader.

[2] = tested on: Staphylococcus aureus (3R7089 strain Oxford/ATCC9144); type: cell-based; details: lowest concentration completely inhibiting growth, 37 °C, 16 h; range 2–100 μM
Protocol: as §1, §2, §3, §4, §5, §6, §7

[3] = tested on: Staphylococcus epidermidis (laboratory strain from clinical isolate); type: cell-based; details: lowest concentration completely inhibiting growth, 37 °C, 16 h; range 2–100 μM
Protocol: as §1, §2, §3, §4, §5, §6, §7

[4] = tested on: Pseudomonas aeruginosa PA01 (ATCC 15692); type: cell-based; details: lowest concentration completely inhibiting growth, 37 °C, 16 h; range 2–100 μM
Protocol: as §1, §2, §3, §4, §5, §6, §7

[5] = Skin cell toxicity assay with HaCaT (alamarBlue); type: cell-based, human; details: human, HaCaT cells (keratinocytes), ED50 HaCaT
Protocol: The activity of our peptoid library was assessed against both bacterial and mammalian cells to gain a broader understanding of the factors that lead to effective and selective antimicrobial peptoids. We screened for broad-spectrum antibacterial activity against Gram-negative (Escherichia coli and Pseudomonas aeruginosa) and Gram-positive (Staphylococcus aureus and S. epidermidis) bacteria. The toxicity of the library was also assessed against two mammalian cell lines; HaCaT spontaneously transformed aneuploid keratinocytes were employed to model toxicity against human skin cells and HepG2, a cell line derived from a human liver carcinoma, were used as a study on polarised human hepatocytes. Detailed methods for these assays can be found in the ESI. ^‡ […]
Please note – ED50, the median effective dose, was defined as the dose that kills 50% of cells.
Cytotoxicity analyses were performed in 96-well plates (Costar, Fisher Scientific) using alamarBlue® (Invitrogen) for cell viability detection using a modified protocol as described previously. HepG2 or HaCaT cells were subcultured at 37 °C, 5% CO2 in DMEM high glucose supplemented with heat-inactivated foetal bovine sera (FBS, 10%; Biosera Ltd) and penicillin/streptomycin (P/S, 1%). Cells were counted using a Neubauer Improved Haemocytometer. HepG2 cells were seeded 1 day prior to treatment in 96 well plates at a concentration of 2 × 10^5 cells per mL in 100 μL of medium (2 × 10^4 cells per well). Then cells were pre-incubated with the compounds in triplicate in a dilution series in triplicate from 2–100 μM (5 mM stock solutions in DMSO diluted from 100 μM to 3 μM; untreated cells with DMSO as a negative control) in 50 μl of the media for 1 hour. Afterwards, 40 μL were removed from each well before the addition of 90 μL of the media, followed by incubation for 24 hours at 37 °C, 5% CO2. Then, 10 μL of alamarBlue® (Invitrogen) was added to each well before a 2 hour incubation prior to assessing cell viability using a fluorescent plate reader (Biotek; Ex 560 nm/Em 600 nm). All data were measured in triplicate on a minimum of two occasions to ensure a robust data set was collected. The ED50 values were calculated from the dose response results achieved from the serial dilutions. […]
Cells were counted using a Neubauer Improved
Haemocytometer. […]
µM to 3 µM; untreated cells with DMSO as a negative control) in 50 µl of the media for 1 hour.
Afterwards, 40 µL were removed from each well before the addition of 90 µL of the media, followed by incubation for 24 hours at 37 °C, 5% CO2. Then, 10 µL of alamarBlue® (Invitrogen) was added to each well before a 2 hour incubation prior to assessing cell viability using a fluorescent plate reader (Biotek; Ex 560 nm / Em 600 nm). All data was measured in triplicate on a minimum of two occasions to ensure a robust data set was collected. The ED50 values were calculated from the dose response results achieved from the serial dilutions.
Skin Cell Toxicity assay with HaCaT […]
alamarBlue® (Invitrogen) for cell viability detection. HaCaT cells were subcultured at 37 °C, 5% CO2 in DMEM high glucose supplemented with heat-inactivated foetal bovine sera (FBS, 10%; Biosera Ltd) and penicillin/streptomycin (P/S, 1%). Cells were counted using a Neubauer Improved Haemocytometer. HaCaT cells were seeded in the plates 24 hours prior to treatment in 96 well plates at a concentration of 2x10^5 cells/mL in 100 µL of medium (2x10^4 cells/well).
Empty wells were filled with 100 µL PBS. After 24 hours, cells were incubated with the compounds in a dilution series in triplicate from 2 – 100 µM (5 mM stock solutions in DMSO diluted from 100 µM to 3 µM; Amphotericin B was used as a positive control and untreated cells with DMSO as a negative control) in 50 µL of the media for 1 hour. Afterwards, 40 µl was removed from each well, 90 µL of medium was added to each well and the cells incubated for 24 hours at 37 °C, 5% CO2. 10 µL of alamarBlue® (Invitrogen) was added to each well before […]

Structure (SMILES) | MIC E. coli [1] [µM] | MIC S. aureus [2] [µM] | MIC S. epidermidis [3] [µM] | MIC P. aeruginosa [4] [µM] | CC50 at 24 h [5] [µM]
C[C@@H](c1ccccc1)N(CC(N)=O)C(=O)CN(C(=O)CN(CCCCNC(=N)N)C(=O)CN(C(=O)CN(C(=O)CN(CCCCNC(=N)N)C(=O)CN(C(=O)CN(C(=O)CNCCCCNC(=N)N)[C@@H](C)c1ccccc1)[C@@H](C)c1ccccc1)[C@@H](C)c1ccccc1)[C@@H](C)c1ccccc1)[C@@H](C)c1ccccc1 [Peptoid 35, (NhArgNspeNspe)3] (H-[NhArg][Nspe][Nspe][NhArg][Nspe][Nspe][NhArg][Nspe][Nspe]-NH2; N-terminus assumed) | 6 | 2 | 2 | 50 | 
N=C(N)NCCCCNCC(=O)N(CC(=O)N(CC(=O)N(CCCCNC(=N)N)CC(=O)N(CC(=O)N(CC(=O)N(CCCCNC(=N)N)CC(=O)N(CC(=O)N(CC(N)=O)Cc1cccc(F)c1)Cc1cccc(F)c1)Cc1cccc(F)c1)Cc1cccc(F)c1)Cc1cccc(F)c1)Cc1cccc(F)c1 [Peptoid 37, (NhArgNmfbNmfb)3] | 6 | 2 | 1 | 25 | 
CC(C)CCN(CC(=O)N(CC(N)=O)[C@@H](C)c1ccccc1)C(=O)CN(CCCCNC(=N)N)C(=O)CN(C(=O)CN(CCC(C)C)C(=O)CN(CCCCNC(=N)N)C(=O)CN(C(=O)CN(CCC(C)C)C(=O)CN(CCCCNC(=N)N)C(=O)CN(C(=O)CN(CCC(C)C)C(=O)CNCCCCNC(=N)N)[C@@H](C)c1ccccc1)[C@@H](C)c1ccccc1)[C@@H](C)c1ccccc1 [Peptoid 38, (NhArgNhLeuNspe)4] (H-[NhArg][N(isopentyl)Gly][Nspe][NhArg][N(isopentyl)Gly][Nspe][NhArg][N(isopentyl)Gly][Nspe][NhArg][N(isopentyl)Gly][Nspe]-NH2; N-terminus assumed) | 13 | 1 | 2 | 25 | 
C[C@@H](c1ccccc1)N(CC(N)=O)C(=O)CN(C(=O)CN(CCCCN)C(=O)CN(C(=O)CN(C(=O)CN(CCCCN)C(=O)CN(C(=O)CN(C(=O)CN(CCCCNC(=N)N)C(=O)CN(C(=O)CN(C(=O)CNCCCCNC(=N)N)[C@@H](C)c1ccccc1)[C@@H](C)c1ccccc1)[C@@H](C)c1ccccc1)[C@@H](C)c1ccccc1)[C@@H](C)c1ccccc1)[C@@H](C)c1ccccc1)[C@@H](C)c1ccccc1 [Peptoid 42, (NhArgNspeNspe)2(NLysNspeNspe)2] (H-[NhArg][Nspe][Nspe][NhArg][Nspe][Nspe][Nlys][Nspe][Nspe][Nlys][Nspe][Nspe]-NH2) | 17 | 17 |  | 17 | 15
C[C@@H](c1ccccc1)N(CC(N)=O)C(=O)CN(C(=O)CN(CCCCN)C(=O)CN(C(=O)CN(C(=O)CN(CCCCNC(=N)N)C(=O)CN(C(=O)CN(C(=O)CN(CCCCN)C(=O)CN(C(=O)CN(C(=O)CNCCCCNC(=N)N)[C@@H](C)c1ccccc1)[C@@H](C)c1ccccc1)[C@@H](C)c1ccccc1)[C@@H](C)c1ccccc1)[C@@H](C)c1ccccc1)[C@@H](C)c1ccccc1)[C@@H](C)c1ccccc1 [Peptoid 44, [(NhArgNspeNspe)(NLysNspeNspe)]2] (H-[NhArg][Nspe][Nspe][Nlys][Nspe][Nspe][NhArg][Nspe][Nspe][Nlys][Nspe][Nspe]-NH2) | 17 | 17 |  | 67 | 33
CC(C)CCN(CC(=O)N(CC(N)=O)[C@@H](C)c1ccccc1)C(=O)CN(CCCCNC(=N)N)C(=O)CN(C(=O)CN(CCC(C)C)C(=O)CN(CCCCNC(=N)N)C(=O)CN(C(=O)CN(CCC(C)C)C(=O)CNCCCCNC(=N)N)[C@@H](C)c1ccccc1)[C@@H](C)c1ccccc1 [Peptoid 39, (NhArgNhLeuNspe)3] (H-[NhArg][N(isopentyl)Gly][Nspe][NhArg][N(isopentyl)Gly][Nspe][NhArg][N(isopentyl)Gly][Nspe]-NH2; N-terminus assumed) |  | 3 | 2 | 100 | 
